Laboratory results as given in PMC9598407, “Identification of Staphylococcus aureus Penicillin Binding Protein 4 (PBP4) Inhibitors” (Antibiotics, 2022).

Tests used:
[1] = test system: Enterococcus faecalis; experiment: Ceftobiprole susceptibility with compound, Enterococcus faecalis; format: cell-based; conditions: not shown
Procedure: As a means to further evaluate whether the compound affects PBP4 activity a series of assays were performed.

[2] = biological target: S. aureus PBP2a (Staphylococcus aureus, UniProt P07944); experiment: BOCILLIN FL fluorescence polarization assay, PBP2A; format: binding; conditions: 50 µM compound; read-out: Inhibition of BOCILLIN FL labeling of PBP2A
Procedure: A dose response study was conducted (Figure 4B) in which PBP4 was preincubated with 0, 3.125, 6.25, 12.5, 25, or 50 µM of ampicillin, kanamycin, or 9314848.
First, fluorescence polarization assays were performed as previously described, but with minor modifications. Briefly, the indicated amount of the putative PBP4 inhibitor or control antibiotic was incubated with 1 µM recombinant B. subtilis PBP4 or S. aureus PBP2a in potassium phosphate buffer (40 mM K2HPO4 and 10 mM KH2PO4) for 1 h in black 96-well microtiter plates (Corning Life Sciences, Corning, NY, USA). Following incubation, 1 µM (final concentration) BOCILLIN FL penicillin was added, and the mixture was incubated for 30 min. BOCILLIN FL fluorescence polarization was measured at (495 nm excitation and 545 nm emission) in a SpectraMax M5 multimode plate reader (Molecular Devices, San Jose, CA, USA). […] Second, gel electrophoresis and fluorescence detection was used to measure BOCILLIN FL labeling of PBP4 treated with the known PBP4 inhibitor cefoxitin (positive control), kanamycin (negative control) or 9314848 (test compound), as previously described but with minor modifications. […] The percentage BOCILLIN FL binding inhibition was then calculated as the normalized band intensity of antibiotic/compound treated sample as compared to the control sample (PBP4 + BOCILLIN FL in the absence of compound).

S. aureus PBP2a, sequence (P07944 whole entry): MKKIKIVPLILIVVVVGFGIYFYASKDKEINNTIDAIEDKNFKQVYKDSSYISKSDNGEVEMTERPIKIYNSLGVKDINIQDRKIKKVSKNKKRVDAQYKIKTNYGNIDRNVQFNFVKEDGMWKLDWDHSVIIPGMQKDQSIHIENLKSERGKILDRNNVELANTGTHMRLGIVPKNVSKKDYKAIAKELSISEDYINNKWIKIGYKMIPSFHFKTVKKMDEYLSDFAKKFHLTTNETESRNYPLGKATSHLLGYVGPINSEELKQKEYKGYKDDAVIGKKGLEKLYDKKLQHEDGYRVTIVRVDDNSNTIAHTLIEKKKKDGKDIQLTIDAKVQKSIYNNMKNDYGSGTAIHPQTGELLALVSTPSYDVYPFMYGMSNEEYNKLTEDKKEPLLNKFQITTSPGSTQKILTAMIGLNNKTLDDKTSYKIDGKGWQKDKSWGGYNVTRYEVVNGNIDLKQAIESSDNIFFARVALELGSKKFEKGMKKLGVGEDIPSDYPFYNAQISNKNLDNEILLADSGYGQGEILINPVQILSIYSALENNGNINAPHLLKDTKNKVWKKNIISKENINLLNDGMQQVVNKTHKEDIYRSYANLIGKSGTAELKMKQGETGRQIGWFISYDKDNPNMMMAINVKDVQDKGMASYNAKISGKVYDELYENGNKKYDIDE

SMILES: CC1CCN(C(=O)c2cccc(NC(=O)Nc3ccc(Cl)cc3)c2)CC1 [Compound 9314848]
- Effect on ceftobiprole susceptibility [1]: no effect
- inhibition at 50 µM [2]: 25.8 ± 11.4%
